This note sets out measurements from US12226410B2, “Methods for enhancing cellular clearance of pathological molecules via activation of the cellular protein ykt6” (NORTHWESTERN UNIVERSITY, priority 2019, dated 2025).

The subject of assay [1] is lysosomal GCase. Briefly: Live cell GCase activity assay in A53T iPSn. Format: cell-based, human. How it is done:
FIGS. 6A, 6B, 6C, 6D, 6E, 6F, and 6G. FTIs enhance lysosomal GCase activity and reduce pathological a-syn by blocking ykt6 farnesylation. 6A) GCase activity in FTI-treated A53T iPSn at d80 (LNK-754 5 nM, 5d). 6B) GCase activity in FTI-treated A53T iPSn expressing empty vector (vect) or ykt6-CS (n=4). 6C) Lysosomal GCase activity was assessed in FTI-treated SHSY5Y cells transfected with scrambled or ykt6 shRNA (KD) (n=3). 6D) Quantification of Triton X-100 soluble (T-sol) a-syn by western blot from FTI-treated A53T iPSn (5 nM, 7d). *, non-specific band. (n=3). 6E) Quantification of insoluble a-syn from A53T iPSn as in D (n=3). 6F) Insoluble a-syn in FTI-treated H4 cells (5 nM, 5 days) transfected with either scrambled or ykt6 shRNA (n=6). 6G) Neuron viability was assessed in FTI-treated A53T iPSn (5 nM, 14d from d86-d100) by quantification of neurofilament protein. Right, neuron viability in FTI-treated A53T iPSn expressing empty vector or ykt6-CS (n=4). Values are the mean+/−SEM, *p<0.05, **p<0.01, ***p<0.001.
Live cell GCase activity assay. […] Fluorescent signal was quantified over time and normalized to total cell volume using CellTag 700 (Licor) or lysosomal mass by using cascade dextran blue (#D-1976, Thermofisher). […]
Treatment of cultures with farnesyltransferase inhibitors. […] Cultures were harvested and analyzed as described in the above sections.

Assay [2] deals with human A53T a-syn. Briefly: FTI treatment of DASYN53 mice: soluble and insoluble a-syn in midbrain. Format: in vivo. Particulars: i.p. 0.9 mg/kg, 26d. The text has this:
FIGS. 8A, 8B, 8C, 8D, 8E, and 8F. FTI treatment enhances GCase activity and reduces pathological a-syn in transgenic mice. 8A) GCase activity in the midbrain of FTI (LNK-754)-treated DASYN53 mice (treated as in FIG. 7) (n=4, veh; n=5, FTI). 8B & 8C) Quantification of soluble and insoluble a-syn from midbrains of FTI-treated DASYN53 mice normalized to total protein (CBB). Syn211 is selective for human (hu) a-syn; C20 and syn303 detect mouse (ms) and hu a-syn, (n=3, nTg+Veh; n=4, DASYN53+veh; n=5 DASYN53+FTI). 8D) Midbrain TH levels were quantified by western blot of FTI-treated DASYN53 mice (n=3). 8E) Body weight of FTI-treated DASYN53 mice (n=9, nTg+Veh; n=7, DASYN53+veh; n=7 DASYN53+FTI). 8F) Rotarod test of FTI-treated DASYN53 mice (n=12, nTg+Veh; n=7, DASYN53+veh; n=7 DASYN53+FTI). Values are the mean+/−SEM. *p<0.05, **p<0.01, and *** p<0.001. Student's t-test, panel A; ANOVA with Tukey's posthoc test, panels B-F.
Sequential biochemical extraction for the analysis of pathological a-synuclein. Cells were harvested in phosphate buffered saline (PBS), pH 7.4, and pelleted by centrifugation at 400×g for 5 minutes. […] Protein concentration was measured by BCA assay (Pierce). […]

The subject of assay [3] is ykt6. Briefly: Ykt6 in red blood cells of FTI-treated mice. Format: in vivo. The conditions noted are these: WT mice. The text has this: FIG. 20. Ykt6 in red blood cells of human and mice. A) Fractionation of RBCs/western blot of ykt6. Markers indicate efficient separation of cytosol (GAPDH) and membrane (Ank, Ankyrin-1). […] B) Ykt6 from RBCs of nTg of symptomatic 12 mo old A53T mice (ref 12) (n=3-5).
(See FIG. 20A). […] (See FIG. 20C).

As to `C#Cc1cccc(-c2cc(=O)n(C)c3ccc([C@](O)(c4ccc(Cl)cc4)c4cncn4C)cc23)c1` [LNK-754], the “lysosomal GCase activity” value in assay [1] (1 nM) is on record as “partially rescued”; in assay [1] (4 and 10 nM) it was “near-complete rescue”. The “soluble and insoluble A53T a-syn in midbrain extracts” value in assay [2] is “reduce soluble and insoluble A53T a-syn”. Besides, the “membrane Ykt6 in red blood cells” value was “increases membrane Ykt6” in assay [3] and “activation of ykt6 in red blood cells” in assay [3] (listed as FTI).
